For data set [1], the target named is T1, hGhrR (COS7 cells stably transfected with hGhrR) (Homo sapiens, UniProt Q92847).
T1 construct: expressed in transfected cells
The data set can be described thus: Inositol phosphate accumulation assay, antagonistic potency with 10^-8 M ghrelin. In kind it is cell-based. The note with it: for Emax: COS-7, read-out: Emax (antagonistic efficacy). On the procedure:
Antagonistic properties at the hGhrR
antagonistic potency in an inositol phosphate accumulation assay (Table S1). The receptor was
Table S1. Inositol phosphate accumulation assay to determine antagonistic potencies of candidate
Compounds were analyzed by inositol phosphate accumulation in COS7 cells stably

The target in a further data set is T2, rat σ2 receptor (Rattus norvegicus, UniProt Q5U3Y7).
T2 construct: rat σ2 receptor = rat liver homogenate; from tissue; host or cells: rat liver homogenate
T2 sequence (Q5U3Y7 1-176): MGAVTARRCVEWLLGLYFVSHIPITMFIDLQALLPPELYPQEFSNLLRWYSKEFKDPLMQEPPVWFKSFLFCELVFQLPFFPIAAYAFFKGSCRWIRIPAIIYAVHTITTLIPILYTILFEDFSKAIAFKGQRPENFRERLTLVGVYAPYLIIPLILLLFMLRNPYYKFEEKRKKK
The data set is described as follows: Selectivity radioligand displacement, [3H]DTG, rat liver homogenate. Particulars: [3H]DTG + 1 µM dextrallorphan. The class given is binding. The protocol:
[…]
(§1) The incubations were terminated by rapid filtration via glass-fiber filters presoaked in PEI (0.3%, 60 min at rt), and the filter-bound radioactivity was counted by liquid scintillation counting (Tricarb, PerkinElmer).
Background: In a radioligand displacement assay an active substance lowers the binding of a labelled ligand.

The nature of data set [2]: HPLC-based chromatographic hydrophobicity index on immobilized artificial membranes (CHI IAM). In kind it is physicochemical. Particulars: IAM PC DD2 column, acetonitrile / 50 mM ammonium acetate gradient. The source says:
Physicochemical properties of a drug such as lipophilicity and non-specific binding to membranes and plasma proteins are crucial parameters of a potential radiotracer, in particular if it is supposed to pass the blood brain barrier (BBB). The lipophilicity (logD7.4) was estimated using the commercially available ACD/Labs-12.5 software and the non-specific binding was estimated by the high-performance liquid chromatography (HPLC)-based hydrophobicity index at immobilized artificial membranes (CHI IAM) for seven fluorine substituted candidate molecules and (S)-13 without fluorine (Table 3).
The chromatographic hydrophobicity index on immobilized artificial membranes (CHI IAM) was experimentally determined by a HPLC method described by Valko and co-workers using a IAM PC DD2 column (100 × 4.6 mm, […], Regis Technologies, IL, USA), a gradient of acetonitrile, and 50 mM ammonium acetate as eluent and acetanilide, acetophenone, 1,4-dinitrobenzene, anisole propiophenone, valerophenone, and octanophenone as references.

For data set [3], the target named is hGhrR (COS7 cells stably expressing hGhrR-eYFP) (Homo sapiens, UniProt Q92847). The data set can be described thus: cell-based. The note with it: for Emax: COS-7, mean ± SEM, refers to ghrelin Emax as 100%, 0% = constitutive receptor activity.
Sequence of hGhrR (COS7 cells stably expressing hGhrR-eYFP) (Q92847 whole entry): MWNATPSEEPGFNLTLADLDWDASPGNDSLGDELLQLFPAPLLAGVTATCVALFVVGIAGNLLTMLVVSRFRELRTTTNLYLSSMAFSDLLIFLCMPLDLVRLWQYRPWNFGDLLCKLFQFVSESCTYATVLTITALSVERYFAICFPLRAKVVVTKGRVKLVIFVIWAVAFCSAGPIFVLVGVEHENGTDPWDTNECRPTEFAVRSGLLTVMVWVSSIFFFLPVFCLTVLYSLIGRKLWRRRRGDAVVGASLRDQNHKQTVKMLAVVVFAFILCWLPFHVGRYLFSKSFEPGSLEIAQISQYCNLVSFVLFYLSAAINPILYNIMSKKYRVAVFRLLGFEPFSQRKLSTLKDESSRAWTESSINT
Protocol: For that purpose, the inositol phosphate accumulation assay was used [43, 44].
Briefly, 60,000 to 80,000 cells/well of COS7 cells, stably expressing the fusion protein hGhrR-eYFP, were seeded in 48-well plates in Dulbecco’s modified Eagle’s medium (DMEM) with 10% fetal calf serum (FCS) and 0.4 mg/mL hygromycin B. The next day, the cells were labeled with [2-^3H]-myo-inositol (2 µCi/mL, PerkinElmer). […] Cell debris was removed and the supernatant purified on an anion-exchange resin (BioRad, Hercules, CA, USA). The obtained data were analyzed with GraphPad Prism 5.0 (GraphPad Software, San Diego, CA, USA). […] EC50/IC50 values were calculated from at least three independent experiments. Emax is defined as the difference between maximal and minimal effect in presence of the compound.
In data set [4] the target is human GhrR (hGhrR-eYFP, HEK293 cell membranes) (Homo sapiens, UniProt Q92847). The data set can be described thus: Competitive radioligand binding assay with [125I-His9]ghrelin at hGhrR membranes. The note with it: for fold higher IC50 than (S)-9: hGhrR binding IC50 relative to starting compound (S)-9.
Sequence of human GhrR (hGhrR-eYFP, HEK293 cell membranes) (Q92847 whole entry): as above
Protocol: Each concentration was tested in duplicate. The membrane-bound radioligand was trapped on a Filtermat B (PerkinElmer) pre-soaked with 0.1% polyethylenimine in H2O by using a filtermat harvester (PerkinElmer). After drying for 20 min at 55 °C, a Meltilex scintillation sheet (PerkinElmer) was melted onto the filtermat and the samples were counted in a Microbeta scintillation counter (PerkinElmer).
A further data set addresses T3, human α3β4 nAChR (Homo sapiens, UniProt P30926+P32297).
T3 construct: expressed in transfected cells; host or cells: HEK cells (by courtesy of Dominik Feuerbach, Novartis), homogenate
The data set can be described thus: Selectivity radioligand displacement, [3H]epibatidine, transfected HEK cells. The class given is binding. Particulars: read-out: Ki at α3β4 nAChRs. The protocol: […]
as §1

The mark [5] stands for this setting: 5 min pre-stimulation with compound, then 10^-8 M ghrelin, read-out: IC50 (antagonistic potency).
The mark [6] stands for this setting: EC50, 2 h stimulation in absence of ghrelin, COS7-hGhrR.
Where [7] appears, read: pEC50, mean ± SEM, 2 h stimulation in absence of ghrelin.

Like-named read-outs stand apart in the source and are kept apart here.

T1 sequence (Q92847 whole entry): as above
T3 sequence (P32297 32-505): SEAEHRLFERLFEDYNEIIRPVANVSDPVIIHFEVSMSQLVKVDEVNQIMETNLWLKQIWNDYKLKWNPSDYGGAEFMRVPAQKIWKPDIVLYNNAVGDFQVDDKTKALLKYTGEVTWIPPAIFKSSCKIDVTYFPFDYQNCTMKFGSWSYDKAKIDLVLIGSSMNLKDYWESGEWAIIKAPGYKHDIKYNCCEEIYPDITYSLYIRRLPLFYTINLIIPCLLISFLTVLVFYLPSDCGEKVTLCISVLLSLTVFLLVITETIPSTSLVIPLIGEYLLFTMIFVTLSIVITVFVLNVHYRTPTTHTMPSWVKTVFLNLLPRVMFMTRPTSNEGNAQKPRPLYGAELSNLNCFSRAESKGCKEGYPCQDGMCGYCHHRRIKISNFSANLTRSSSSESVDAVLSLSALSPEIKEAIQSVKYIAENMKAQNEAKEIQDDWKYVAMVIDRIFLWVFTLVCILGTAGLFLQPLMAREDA
T3 sequence (P30926 22-498): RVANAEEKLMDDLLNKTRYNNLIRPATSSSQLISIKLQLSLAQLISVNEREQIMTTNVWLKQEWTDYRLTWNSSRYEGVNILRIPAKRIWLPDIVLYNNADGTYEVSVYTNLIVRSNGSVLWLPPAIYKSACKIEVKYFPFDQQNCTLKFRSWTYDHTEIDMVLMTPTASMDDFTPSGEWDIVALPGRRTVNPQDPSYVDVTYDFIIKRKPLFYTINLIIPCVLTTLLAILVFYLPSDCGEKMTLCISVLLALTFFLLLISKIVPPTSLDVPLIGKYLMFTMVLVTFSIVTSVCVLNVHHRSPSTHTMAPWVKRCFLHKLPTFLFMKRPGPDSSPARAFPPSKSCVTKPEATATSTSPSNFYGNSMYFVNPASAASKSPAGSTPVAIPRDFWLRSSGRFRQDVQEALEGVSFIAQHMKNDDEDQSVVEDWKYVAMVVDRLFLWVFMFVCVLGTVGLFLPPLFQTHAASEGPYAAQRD

Take `Cc1nc2ccc(Oc3ccc(Br)cc3F)nc2c(=O)n1C[C@@H]1CCCN(C(C)C)C1` [(R)-9, (R)-6-(4-Bromo-2-fluorophenoxy)-3-((1-isopropylpiperidin-3-yl)methyl)-2-methylpyrido[3,2-d]pyrimidin-4(3H)-one]: the IC50 in data set [1] (setting [5]) is 17.5 nM; in data set [4], 3.89 nM. Also, the Emax (commonly the size of the effect at its maximum, as opposed to the concentration needed) was 45 ± 5% in data set [1] and roughly 60% in data set [3]. Further, the Ki (in general, a dissociation constant, usually derived from enzyme kinetics or from competition with a known ligand) on rat σ2 receptor was 53 ± 7 nM. Also, the “CHI IAM” value in data set [2] was determined as 42.8. For the same compound, the EC50 (usually the concentration needed to bring the measured effect to its halfway point) in data set [3] (setting [6]) is 0.6 nM; in data set [3] (setting [7]), 0.55 nM.

On to `Cc1nc2ccc(Oc3ccc(Br)cc3F)nc2c(=O)n1C[C@H]1CCCN(CCF)C1` [(S)-10, (S)-6-(4-Bromo-2-fluorophenoxy)-3-((1-(2-fluoroethyl)piperidin-3-yl)methyl)-2-methylpyrido[3,2-d]pyrimidin-4(3H)-one], for which the values for the IC50 in data set [1] (setting [5]) and in data set [4] were 345 nM and 69 nM, respectively. The Emax in data set [1] was 22 ± 4%; in data set [3], roughly 60%. The “CHI IAM” value in data set [2] stood at 39.6. In data set [3] (setting [7]), this compound had a concentration giving a half-maximal response (EC50) of 1.58 nM. Moreover, in data set [4], the “fold higher IC50 than (S)-9” value is recorded as “about 30 fold”.

Regarding `Cc1nc2ccc(Oc3ccc(Br)cc3F)nc2c(=O)n1C[C@H]1CCCN(CCCF)C1` [(S)-11, (S)-6-(4-Bromo-2-fluorophenoxy)-3-((1-(3-fluoropropyl)piperidin-3-yl)methyl)-2-methylpyrido[3,2-d]pyrimidin-4(3H)-one], the IC50 stood at 349 nM in data set [1] (setting [5]) and 66 nM in data set [4]. In addition, the Emax is 56 ± 10% in data set [1] and roughly 60% in data set [3]. Besides, the Ki at human α3β4 nAChR was 27 ± 8 nM. For the same compound, the “CHI IAM” value in data set [2] is recorded as 42.2. In data set [3] (setting [7]), this compound showed an EC50 of 2.88 nM. Further, in data set [4], the “fold higher IC50 than (S)-9” value is reported as “about 30 fold”.

`Cc1nc2ccc(Oc3ccc(Br)cc3F)nc2c(=O)n1C[C@H]1CCCN(CCCCF)C1` [(S)-12, (S)-6-(4-Bromo-2-fluorophenoxy)-3-((1-(4-fluorobutyl)piperidin-3-yl)methyl)-2-methylpyrido[3,2-d]pyrimidin-4(3H)-one]: on human α3β4 nAChR, the Ki amounted to 64 ± 14 nM. Further, the “CHI IAM” value in data set [2] is 43.3. In data set [4], this compound yielded an IC50 of 574 nM.

On to `Cc1nc2ccc(Oc3ccc(Br)cc3F)nc2c(=O)n1C[C@H]1CCCN(C(C)CF)C1` (stereo partly drawn) [(S)-13, 6-(4-Bromo-2-fluorophenoxy)-3-(((3S)-1-(1-fluoropropan-2-yl)piperidin-3-yl)methyl)-2-methylpyrido[3,2-d]pyrimidin-4(3H)-one], for which the IC50 in data set [1] (setting [5]) is 207 nM; in data set [1] (mean ± SEM, with 10^-8 M ghrelin, read-out: pIC50 (antagonistic potency) (converted)), 204 nM; in data set [4], 12.6 nM. Further, the Emax was 31 ± 5% in data set [1] and roughly 60% in data set [3]. The “CHI IAM” value in data set [2] is listed as 42.8. The EC50 in data set [3] (setting [6]) is 1.4 nM; in data set [3] (setting [7]), 1.35 nM.

For the compound `Cc1nc2ccc(Oc3ccc(Br)cc3)nc2c(=O)n1C[C@H]1CCCN(C(C)C)C1` [(S)-14], the IC50 in data set [1] (setting [5]) was 123 nM; in data set [4], 12.3 nM. The figures for the Emax in data set [1] and in data set [3] were 57 ± 6% and 42 ± 4%, respectively. Also, the “CHI IAM” value in data set [2] is 42.8. The same compound showed an EC50 in data set [3] (setting [7]) of 2.14 nM.

Turning to `CC(C)N1CCC[C@H](Cn2cnc3ccc(Oc4ccc(Br)cc4F)nc3c2=O)C1` [(S)-16, (S)-6-(4-Bromo-2-fluorophenoxy)-3-((1-isopropylpiperidin-3-yl)methyl)pyrido[3,2-d]pyrimidin-4(3H)-one], the IC50 was 28.7 nM in data set [1] (setting [5]) and 2.69 nM in data set [4]. In addition, the Emax in data set [1] was 65 ± 5%; in data set [3] it was 40 ± 4%. Besides, the “CHI IAM” value in data set [2] is given as 42.3. This compound also had an EC50 in data set [3] (setting [7]) of 1.02 nM.

The compound `CC(C)N1CCC[C@H](Cn2c(F)nc3ccc(Oc4ccc(Br)cc4F)nc3c2=O)C1` [(S)-17, (S)-6-(4-Bromo-2-fluorophenoxy)-2-fluoro-3-((1-isopropylpiperidin-3-yl)methyl)pyrido[3,2-d]pyrimidin-4(3H)-one] gave an IC50 in data set [4] of 151 nM.

Source of the values: publication PMC5412352 (International Journal of Molecular Sciences, 2017).
